Earlier results on 1 compound are cited in publication PMC3689638, “Cell cycle-dependent activity of the novel dual PI3K-MTORC1/2 inhibitor NVP-BGT226 in acute leukemia” (Molecular Cancer, 2013).

The data set concerns pancreatic cancer cell lines. The arrangement: method as in PMID 22170433. The following applies: cited from earlier work.

`COc1ccc(-c2ccc3ncc4c(c3c2)n(-c2ccc(N3CCNCC3)c(C(F)(F)F)c2)c(=O)n4C)cn1` [NVP-BGT226]: the “effect on cell cycle” value is on record as “results in cell cycle arrest”.
